Measured values taken from publication PMC3353862.
In brackets after ≈: the same amount, converted by molar mass.

Experiments:
[1] = test system: E. coli tolC mutants; assay: Broth microdilution MIC testing; format: cell-based, Escherichia coli; conditions: for MIC E. coli tolC: E. coli tolC mutants; for MIC: Escherichia coli, read-out: MIC E. coli tolC
[2] = test system: bacterial protein synthesis (aminoacylation/translation system); assay: aminoacylation/translation (A/T) assay; format: biochemical; conditions: for IC50: A/T assay, Table 1, read-out: IC50
[3] = test system: E. coli modified with PMBN; assay: Broth microdilution MIC testing; format: cell-based, Escherichia coli; conditions: for MIC E. coli +PMBP: E. coli modified with PMBN; for MIC: Escherichia coli, read-out: MIC E. coli +PMBP
[4] = test system: H. influenzae; assay: Broth microdilution MIC testing; format: cell-based, Haemophilus influenzae; conditions: for MIC H. flu: H. influenzae; for MIC: Haemophilus influenzae, read-out: MIC H. flu
[5] = test system: E. faecalis; assay: Broth microdilution MIC testing; format: cell-based, Enterococcus faecalis; conditions: for MIC E. fae: E. faecalis; for MIC: Enterococcus faecalis, read-out: MIC E. fae
[6] = test system: S. pneumoniae; assay: Broth microdilution MIC testing; format: cell-based, Streptococcus pneumoniae; conditions: for MIC S. pneumo: S. pneumoniae; for MIC: Streptococcus pneumoniae, read-out: MIC S. pneumo
[7] = test system: S. aureus; assay: Broth microdilution MIC testing; format: cell-based, Staphylococcus aureus; conditions: for MIC: Staphylococcus aureus, read-out: MIC S. aureus
[8] = test system: M. catarrhalis; assay: Broth microdilution MIC testing; format: cell-based, Moraxella catarrhalis; conditions: for MIC: Moraxella catarrhalis

Row | Compound | MIC E. coli tolC [1] | IC50 [2] | MIC E. coli +PMBP [3] | MIC H. flu [4] | MIC E. fae [5] | MIC S. pneumo [6] | MIC S. aureus [7] | MIC M. cat [8] | MIC [1] | MIC [3] | MIC [4] | MIC [5] | MIC [6] | MIC [7] | MIC [8] | biochemical activity in the A/T assay [2]
1 | CN(CCO)c1ccc(CN2CCc3nc(-c4ccccn4)[nH]c(=O)c3C2)cc1 [Compound 323232] | 128 µg/mL (≈ 327 µM) | 3200 nM | > 128 µg/mL | > 128 µg/mL | > 128 µg/mL | > 128 µg/mL | > 128 µg/mL | 8 µg/mL (≈ 20.4 µM) |  |  |  |  |  |  |  | 
2 | O=c1[nH]c(-c2ccccn2)nc2c1CN(Cc1ccccc1N1CCCC1)CC2 [Compound 323195] | 32 µg/mL (≈ 82.6 µM) | 1500 nM | 16 µg/mL (≈ 41.3 µM) | 16 µg/mL (≈ 41.3 µM) | 64 µg/mL (≈ 165 µM) | 32 µg/mL (≈ 82.6 µM) | 64 µg/mL (≈ 165 µM) | 2 µg/mL (≈ 5.16 µM) |  |  |  |  |  |  |  | 
3 | CN(C)Cc1cc(CN2CCc3nc(-c4ccccn4)[nH]c(=O)c3C2)ccc1O [Compound 323206] | > 128 µg/mL | > 300000 nM | > 128 µg/mL | > 128 µg/mL | > 128 µg/mL | > 128 µg/mL | > 128 µg/mL | > 128 µg/mL |  |  |  |  |  |  |  | 
4 | O=c1[nH]c(-c2ccccn2)nc2c1CN(Cc1ccccc1OCc1ccccn1)CC2 [Compound 323192] | 128 µg/mL (≈ 301 µM) | > 300000 nM | 64 µg/mL (≈ 150 µM) | 64 µg/mL (≈ 150 µM) | 128 µg/mL (≈ 301 µM) | 32 µg/mL (≈ 75.2 µM) | > 128 µg/mL | 4 µg/mL (≈ 9.4 µM) |  |  |  |  |  |  |  | 
5 | O=C(Cc1ccc(Cl)cc1)N1CCc2nc(-c3ccccn3)[nH]c(=O)c2C1 [Compound 323369] |  | 2010 nM |  |  |  |  |  |  | 64 µg/mL (≈ 168 µM) | 32 µg/mL (≈ 84 µM) | 16 µg/mL (≈ 42 µM) | 64 µg/mL (≈ 168 µM) | 64 µg/mL (≈ 168 µM) | 128 µg/mL (≈ 336 µM) | 4 µg/mL (≈ 10.5 µM) | 
6 | O=C1CCCN1c1ccc(CN2CCc3nc(-c4ccccn4)[nH]c(=O)c3C2)cc1 [Compound 323211] | > 128 µg/mL | 1600 nM | > 128 µg/mL | > 128 µg/mL | > 128 µg/mL | > 128 µg/mL | > 128 µg/mL | 64 µg/mL (≈ 159 µM) |  |  |  |  |  |  |  | 
7 | COc1ccc(CN2CCc3nc(-c4ccccn4)[nH]c(=O)c3C2)cc1Cn1cccn1 [Compound 323234] | > 128 µg/mL | 5800 nM | 64 µg/mL (≈ 149 µM) | 128 µg/mL (≈ 299 µM) | 128 µg/mL (≈ 299 µM) | 128 µg/mL (≈ 299 µM) | > 128 µg/mL | 16 µg/mL (≈ 37.3 µM) |  |  |  |  |  |  |  | 
8 | Cc1cc2c(cc1CN1CCc3nc(-c4ccccn4)[nH]c(=O)c3C1)OCO2 [Compound 323207] | > 128 µg/mL | > 300000 nM | > 128 µg/mL | > 128 µg/mL | > 128 µg/mL | > 128 µg/mL | > 128 µg/mL | > 128 µg/mL |  |  |  |  |  |  |  | 
9 | O=c1[nH]c(-c2ccccn2)nc2c1CN(Cc1cccc(O)c1O)CC2 [Compound 323196] | > 128 µg/mL | 1600 nM | > 128 µg/mL | > 128 µg/mL | 32 µg/mL (≈ 91.3 µM) | > 128 µg/mL | > 128 µg/mL | 128 µg/mL (≈ 365 µM) |  |  |  |  |  |  |  | 
10 | CCOc1ccc(CN2CCc3nc(-c4ccccn4)[nH]c(=O)c3C2)cc1Cn1ccnc1 [Compound 323239] | 64 µg/mL (≈ 145 µM) | 3000 nM | 128 µg/mL (≈ 289 µM) | 64 µg/mL (≈ 145 µM) | 64 µg/mL (≈ 145 µM) | > 128 µg/mL | > 128 µg/mL | 8 µg/mL (≈ 18.1 µM) |  |  |  |  |  |  |  | 
11 | O=c1[nH]c(-c2ccccn2)nc2c1CN(Cc1cccc(Cl)c1)CC2 [Compound 323220] | 8 µg/mL (≈ 22.7 µM) | 2100 nM | 8 µg/mL (≈ 22.7 µM) | 2 µg/mL (≈ 5.67 µM) | 32 µg/mL (≈ 90.7 µM) | 4 µg/mL (≈ 11.3 µM) | 16 µg/mL (≈ 45.3 µM) | ≤0.12 µg/mL |  |  |  |  |  |  |  | 
12 | COc1cc(OC)c(OC)cc1CN1CCc2nc(-c3ccccn3)[nH]c(=O)c2C1 [Compound 323226] | > 128 µg/mL | 8000 nM | > 128 µg/mL | > 128 µg/mL | > 128 µg/mL | > 128 µg/mL | > 128 µg/mL | 64 µg/mL (≈ 157 µM) |  |  |  |  |  |  |  | 
13 | O=c1[nH]c(-c2ccco2)nc2c1CN(Cc1ccc(Cl)cc1)CC2 [Compound 332053] |  | > 300000 nM |  |  |  |  |  |  | > 128 µg/mL | > 128 µg/mL | > 64 µg/mL | > 128 µg/mL | > 128 µg/mL | > 128 µg/mL | > 128 µg/mL | abolished all biochemical activity
14 | O=C(COc1ccc(CN2CCc3nc(-c4ccccn4)[nH]c(=O)c3C2)cc1)N1CCCC1 [Compound 323210] | > 128 µg/mL | 3200 nM | > 128 µg/mL | > 128 µg/mL | > 128 µg/mL | > 128 µg/mL | > 128 µg/mL | > 128 µg/mL |  |  |  |  |  |  |  | 
15 | Clc1ccc(CN2CCc3nc(-c4ccccn4)ncc3C2)cc1 [Compound 323355] |  | 32100 nM |  |  |  |  |  |  | 64 µg/mL (≈ 190 µM) | 64 µg/mL (≈ 190 µM) | 64 µg/mL (≈ 190 µM) | > 128 µg/mL | 64 µg/mL (≈ 190 µM) | 128 µg/mL (≈ 380 µM) | 4 µg/mL (≈ 11.9 µM) | 
16 | COc1cc(C)c(CN2CCc3nc(-c4ccccn4)[nH]c(=O)c3C2)cc1OC [Compound 323209] | 64 µg/mL (≈ 163 µM) | 1500 nM | 64 µg/mL (≈ 163 µM) | 64 µg/mL (≈ 163 µM) | > 128 µg/mL | 32 µg/mL (≈ 81.5 µM) | > 128 µg/mL | 4 µg/mL (≈ 10.2 µM) |  |  |  |  |  |  |  | 
17 | O=c1[nH]c(-c2ccccn2)nc2c1CN(Cc1cccc(F)c1F)CC2 [Compound 323237] | 8 µg/mL (≈ 22.6 µM) | 2800 nM | 16 µg/mL (≈ 45.2 µM) | 4 µg/mL (≈ 11.3 µM) | 64 µg/mL (≈ 181 µM) | 8 µg/mL (≈ 22.6 µM) | 32 µg/mL (≈ 90.3 µM) | 0.5 µg/mL (≈ 1.41 µM) |  |  |  |  |  |  |  | 
18 | COc1ccc(CN2CCc3nc(-c4ccccn4)[nH]c(=O)c3C2)c(OC)c1O [Compound 323236] | > 128 µg/mL | 7800 nM | > 128 µg/mL | > 128 µg/mL | > 128 µg/mL | > 128 µg/mL | > 128 µg/mL | > 128 µg/mL |  |  |  |  |  |  |  | 
19 | COc1ccccc1CN1CCc2nc(-c3ccccn3)nc(O)c2C1 [Compound 321527] |  | 1800 nM |  |  |  |  |  |  | 64 µg/mL (≈ 184 µM) | > 128 µg/mL | 16 µg/mL (≈ 45.9 µM) | 64 µg/mL (≈ 184 µM) | 32 µg/mL (≈ 91.8 µM) | > 128 µg/mL | 2 µg/mL (≈ 5.74 µM) | 
20 | Oc1nc(-c2cccnc2)nc2c1CN(Cc1cccc(F)c1)CC2 [Compound 321376] |  | > 300000 nM |  |  |  |  |  |  | > 128 µg/mL |  |  |  |  | > 128 µg/mL |  | 
